Like-named read-outs stand apart in the source and are kept apart here. Each block holds one molecule with its values, some of them ahead of it.
Key:
NALM6 = assay: MTT cytotoxicity, NALM6; type: cell-based, human; conditions: read-out: Cytotoxic effect, IC50
Description: (§1) Cytotoxicity was evaluated against fifteen adherent human cancer cell lines using the MTT test: colorectal adenocarcinoma cells Caco2 (ATCC® HTB-37™), colorectal adenocarcinoma cells HT29 (ATCC® HTB-38™), colon colorectal carcinoma HCT116 (ATCC® CCL-247™), colon adenocarcinoma COLO205 (ATCC® CCL-222™), colorectal adenocarcinoma SW620 (ATCC® CCL-227™), colorectal adenocarcinoma grade IV LoVo (ATCC® CCL-229™), hepatocellular carcinoma Hep 3b (ATCC® HB-8064™), endometrium adenocarcinoma HEC1A (ATCC® HTB-112™), Ishikawa (99040201; Sigma–Aldrich Sigma, St. Louis, MO, USA), cervical adenocarcinoma cells HeLa (ATCC® CCL-2™), lung epithelial carcinoma A549 (ATCC® CRM-CCL-185™), breast epithelial adenocarcinoma cell positive for estrogen and progesterone receptors MCF7 (ATCC® HTB-22™) and negative for expression of estrogen receptor HCC38 (ATCC® CRL-2314™), acute promyelocytic leukemia HL-60 (ATCC® CCL-240™), skin melanoma WM115 (ATCC® CRL-1676™), and 1 suspension cancer cell line: acute lymphoblastic leukemia NALM6 (purchased from the German Collection of Microorganisms and Cell Cultures). HT29, NALM6, HCC-38 and HL-60 cells were cultured in RPMI 1640 medium (Thermo Fisher Scientific, Waltham, MA, USA) supplemented with 10% fetal bovine serum and antibiotic (gentamicin 25 μg ml^−1) (Gibco, Grand Island, New York, NY, USA). For the remaining tumor cell lines, Dulbecco’s minimal essential medium (DMEM, Lonza, Visp, Switzerland) supplemented with 10% fetal bovine serum and antibiotic instead of RPMI 1640 was used. In addition, Human Microvascular Endothelial Cells (HMEC1), which were obtained from the American Type Culture Collection (Manassas, VA, USA), were used as a model of normal cells. HMEC-1 were cultured in MCDB131 medium (Corning Life Sciences, Corning, NY, USA), supplemented with 10% fetal bovine serum, 10 ng/mL Epidermal Growth Factor (Millipore, Burlington, MA, USA) and 10 mM glutamine (Corning Life Sciences). All cells were grown at 37 °C in humidified atmosphere of 5% CO2 in air. The exponential growth of cells was maintained by regular passaging at 90% confluence three times a week using 0.025% trypsin/EDTA (Gibco, Grand Island, New York, NY, USA).
(§2) The cytotoxicity was tested by a standard MTT [3-(4,5-dimethylthiazol-2-yl)-2,5-diphenyltetrazolium bromide] (Sigma, St. Louis, MO, USA) microplate cell viability assay. The anticancer activity of the investigated compounds was evaluated in vitro on the basis of their ability to inhibit the proliferation of various cancer cells. Exponentially growing cells were seeded a day before the experiment into a 96-well microplate (Nunc, Roskilde, Denmark) at a density up to 6–8 × 10^3 cells/mL (depending on the cell line) and exposed to the test compounds at a wide range of concentrations for 48 h. Subsequently, various concentrations of the studied compounds (10^−7–10^−5 M) freshly prepared in DMSO (final concentration of <0.1% DMSO) and diluted with complete culture medium were added. After 48 h incubation, the cells were immediately subjected to a cell viability assay. At this time point, the number of viable cells in each well was estimated by the MTT test. Briefly, 50 µL (5 mg/mL final concentration) of MTT was added to each microplate well. This procedure was then followed by a three- to four-hour incubation at 37 °C. After incubation, MTT solution was replaced with 100 µL DMSO/well, which solubilized the formazan crystals formed by the dehydrogenases of metabolically active cells. Purple formazan absorbance was measured spectrophotometrically at 570 nm.

Hela = assay: MTT cytotoxicity, Hela; type: cell-based, human; conditions: 48 h incubation, read-out: Cytotoxic effect, IC50
Description: as §1, §2

HL60 = assay: MTT cytotoxicity, HL60; type: cell-based, human; conditions: read-out: Cytotoxic effect, IC50
Description: as §1, §2

MCF7 = assay: MTT cytotoxicity, MCF7; type: cell-based, human; conditions: 48 h incubation, read-out: Cytotoxic effect, IC50
Description: as §1, §2

A549 = assay: MTT cytotoxicity, A549; type: cell-based, human; conditions: 48 h incubation, read-out: Cytotoxic effect, IC50
Description: as §1, §2

SW620 = assay: MTT cytotoxicity, SW620; type: cell-based, human; conditions: read-out: Cytotoxic effect, IC50
Description: as §1, §2

Caco2 = assay: MTT cytotoxicity, Caco2; type: cell-based, human; conditions: read-out: Cytotoxic effect, IC50
Description: as §1, §2

HT29 = assay: MTT cytotoxicity, HT29; type: cell-based, human; conditions: read-out: Cytotoxic effect, IC50
Description: as §1, §2

Colo205 = assay: MTT cytotoxicity, Colo205; type: cell-based, human; conditions: read-out: Cytotoxic effect, IC50
Description: as §1, §2

Hep 3b = assay: MTT cytotoxicity, Hep 3b; type: cell-based, human; conditions: 48 h incubation, read-out: Cytotoxic effect, IC50
Description: as §1, §2

Ishikawa = assay: MTT cytotoxicity, Ishikawa; type: cell-based, human; conditions: 48 h incubation, read-out: Cytotoxic effect, IC50
Description: as §1, §2

HCC38 = assay: MTT cytotoxicity, HCC38; type: cell-based, human; conditions: 48 h incubation, read-out: Cytotoxic effect, IC50
Description: as §1, §2

Lipophilicity by RP-TLC = type: physicochemical; design: key: RM = log(1/Rf − 1), Rf = a/b; conditions: eluent AcCN: H2O at 30–70% v/v, 22 °C
Description: All the experimental solutions of standard substances (0.1 mg/mL) were prepared by dissolving ligands (1a–1d) or ruthenium complexes (2a/3a–2d/3d) in ethanol. Commercially-available octadecyl-modified silica aluminum sheets (20 × 20 cm) were cut into 5 × 10 cm plates. The plates were manually spotted with 1.0 μL of freshly prepared solutions using automatic pipets, 5 mm from each edge. The chromatograms for all compounds (1a/2a/3a–1d/2d/3d) were developed using a horizontal developing chamber and the solvent migration distance was about 4.5 cm. The plates were visually inspected under UV light at 254 nm. Each zone was clearly marked and its distance was manually measured. The RP-TLC analyses of lipophilicity were performed at ambient temperature (22 °C). In this experiment, all measurements were performed in triplicate and the obtained results were used in further calculations. The acetonitrile and water mixtures for ligands 1a–1d and arene–ruthenium(II) complexes 2a/3a–2d/3d were used as mobile phases, with […] content increasing in the range of 30–70% v/v, at 5% intervals. Values of the chromatographic retention coefficient Rf (as shown Formula (1)) and RM (as shown Formula (2)), based on received chromatograms, were calculated and converted as follows:(1) Rf=a/b (2) RM=log1/Rf−1

LoVo = assay: MTT cytotoxicity, LoVo; type: cell-based, human; conditions: 48 h incubation, read-out: Cytotoxic effect, IC50
Description: as §1, §2

[1] = system: human microvascular endothelial cell line HMEC1; assay: MTT cytotoxicity, normal endothelial cells HMEC1; type: cell-based
Description: as §1, §2

HEC1A = assay: MTT cytotoxicity, HEC1A; type: cell-based, human; conditions: 48 h incubation, read-out: Cytotoxic effect, IC50
Description: as §1, §2

WM115 = assay: MTT cytotoxicity, WM115; type: cell-based, human; conditions: read-out: Cytotoxic effect, IC50
Description: as §1, §2

[2] = Homo sapiens, NALM-6, 48 h incubation
[3] = Homo sapiens, HL-60, 48 h incubation
[4] = Homo sapiens, SW-620, 48 h incubation
[5] = Homo sapiens, Caco-2, 48 h incubation
[6] = Homo sapiens, HT-29, 48 h incubation
[7] = Homo sapiens, COLO 205, 48 h incubation
[8] = Homo sapiens, WM-115, 48 h incubation

Lipophilicity, RM (Lipophilicity by RP-TLC): 2.55
SMILES: Cc1cc(C)n(C(N)=S)n1.Cc1ccc(C(C)C)cc1.F[P-](F)(F)(F)(F)F.[Cl-].[Ru+2] [3a]
IC50 (NALM6; 48 h incubation): 46.1 ± 5.1 µM
IC50 (Hela): 98.7 ± 7.4 µM
IC50 (HL60; 48 h incubation): 79.7 ± 7.2 µM
IC50 (MCF7): > 200 µM
IC50 (A549): > 200 µM
IC50 (SW620; 48 h incubation): 63.9 ± 2.7 µM
IC50 (Caco2; 48 h incubation): 107 ± 8.4 µM
IC50 (HT29; 48 h incubation): 123 ± 3.9 µM
IC50 (Colo205; 48 h incubation): 59.6 ± 3.4 µM
IC50 (Hep 3b): 55.3 ± 2.6 µM
IC50 (Ishikawa): > 200 µM
IC50 (HCC38): > 200 µM
IC50 (LoVo): 127 ± 3.7 µM
IC50 ([1]; HMEC1 normal endothelial cells, 48 h incubation, read-out: Cytotoxic effect, IC50): > 200 µM
IC50 for HMEC-1 higher than for cancer cells (selectivity) ([1]; HMEC-1 vs cancer cells): 3–5 times
IC50 (HEC1A): 77.2 ± 4.4 µM
IC50 (WM115; 48 h incubation): 64.1 ± 5.1 µM

Lipophilicity, RM (Lipophilicity by RP-TLC): 2.51
SMILES: CCc1cc(CC)n(C(N)=S)n1 [1b]
IC50 (NALM6; [2]): > 200 µM
IC50 (Hela; Homo sapiens): > 200 µM
IC50 (HL60; [3]): > 200 µM
IC50 (MCF7; Homo sapiens): > 200 µM
IC50 (A549; Homo sapiens): > 200 µM
IC50 (SW620; [4]): > 200 µM
IC50 (Caco2; [5]): > 200 µM
IC50 (HT29; [6]): > 200 µM
IC50 (Colo205; [7]): > 200 µM
IC50 (Hep 3b; Homo sapiens, Hep3B): > 200 µM
IC50 (Ishikawa; Homo sapiens): 100 ± 4.6 µM
IC50 (HCC38; Homo sapiens): > 200 µM
IC50 (LoVo; Homo sapiens): > 200 µM
IC50 (HEC1A; Homo sapiens, HEC-1-A): 114 ± 11.3 µM
IC50 (WM115; [8]): > 200 µM

Lipophilicity, RM (Lipophilicity by RP-TLC): 2.32
SMILES: Cc1cc(C)n(C(N)=S)n1 [1a]
IC50 (NALM6; [2]): > 200 µM
IC50 (Hela; Homo sapiens): > 200 µM
IC50 (HL60; [3]): > 200 µM
IC50 (MCF7; Homo sapiens): > 200 µM
IC50 (A549; Homo sapiens): > 200 µM
IC50 (SW620; [4]): > 200 µM
IC50 (Caco2; [5]): > 200 µM
IC50 (HT29; [6]): > 200 µM
IC50 (Colo205; [7]): > 200 µM
IC50 (Hep 3b; Homo sapiens, Hep3B): > 200 µM
IC50 (Ishikawa; Homo sapiens): 124 ± 4.8 µM
IC50 (HCC38; Homo sapiens): > 200 µM
IC50 (LoVo; Homo sapiens): > 200 µM
IC50 (HEC1A; Homo sapiens, HEC-1-A): 111 ± 9.6 µM
IC50 (WM115; [8]): > 200 µM

Lipophilicity, RM (Lipophilicity by RP-TLC): 2.39
SMILES: Cc1cc(O)n(C(N)=S)n1.Cc1ccc(C(C)C)cc1.F[P-](F)(F)(F)(F)F.[Cl-].[Ru+2] [3d]
IC50 (NALM6; 48 h incubation): > 200 µM
IC50 (Hela): > 200 µM
IC50 (HL60; 48 h incubation): > 200 µM
IC50 (MCF7): > 200 µM
IC50 (A549): 152 ± 2.8 µM
IC50 (SW620; 48 h incubation): > 200 µM
IC50 (Caco2; 48 h incubation): 162 ± 6.1 µM
IC50 (HT29; 48 h incubation): 185.2 ± 1.8 µM
IC50 (Colo205; 48 h incubation): > 200 µM
IC50 (Hep 3b): > 200 µM
IC50 (Ishikawa): > 200 µM
IC50 (HCC38): 188 ± 6.4 µM
IC50 (LoVo): 110 ± 6.9 µM
IC50 (HEC1A): 128 ± 2.1 µM
IC50 (WM115; 48 h incubation): > 200 µM

From PMC10180065, “Mechanistic Studies of Arene–Ruthenium(II) Complexes with Carbothioamidopyrazoles as Alternative Cancer Drugs” (Molecules, 2023)
